The text below walks through data of article PMC13428274 (ACS infectious diseases, 2025).

This assay addresses BlaR (Staphylococcus aureus, UniProt P18357). The experiment in a line: SPR steady-state fit, immobilized sensor domain. Format: binding.

Sequence of BlaR (P18357 332-585): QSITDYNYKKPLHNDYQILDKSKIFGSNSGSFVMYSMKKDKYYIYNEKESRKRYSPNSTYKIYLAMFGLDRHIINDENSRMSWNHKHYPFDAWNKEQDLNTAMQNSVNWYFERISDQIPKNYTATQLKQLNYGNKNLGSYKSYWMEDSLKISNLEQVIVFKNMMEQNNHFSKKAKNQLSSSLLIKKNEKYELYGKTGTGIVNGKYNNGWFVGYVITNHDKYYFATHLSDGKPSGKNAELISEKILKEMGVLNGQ

For the compound `Cn1ncc2c(Nc3ccc(Br)cc3)nc(Nc3ccc(Br)cc3)nc21` [compound 1, N^4,N^6-bis(4-bromophenyl)-1-methyl-1H-pyrazolo[3,4-d]pyrimidine-4,6-diamine], the Kd (usually the concentration at which binding is half-saturated) stood at 31 ± 2 µM.
